IC50 data for seven molecules are collected here from ChEMBL document CHEMBL1127653, “Synthesis and anticholinergic activity of the four stereoisomers of 4-(dimethylamino)-2-phenyl-2-(2-pyridyl)pentanamide” (J Med Chem, 1994).

For orientation: IC50 means the concentration needed to halve the response being measured. Low values mean greater potency, high ones weaker potency.

The species named for one test is Cavia porcellus. Briefly: Inhibitory effect on acetylcholine-Induced contraction of Guinea pig iIeum. The class given is functional.
Settings: not given
On to `C[C@H](C[C@@](C(N)=O)(c1ccccc1)c1ccccn1)N(C)C` (stereo in doubt; 10 (2R,4R)), for which half-maximal inhibition (IC50) was put at 400 nM.

In the case of `C[C@H](C[C@@](C(N)=O)(c1ccccc1)c1ccccn1)N(C)C` (stereo in doubt; 11 (2S,4S)), the IC50 stood at 31000 nM.

As to `CC(CC(C(N)=O)(c1ccccc1)c1ccccn1)N(C)C` (racemic; form 1) [VAMICAMIDE], the IC50 stood at 1500 nM.

Turning to `CC(CC(C(N)=O)(c1ccccc1)c1ccccn1)N(C)C` (racemic; form 2) [VAMICAMIDE], the IC50 stood at 570 nM.

`C[C@H](C[C@@](C(N)=O)(c1ccccc1)c1ccccn1)N(C)C` (stereo in doubt; 12 (2R,4S)) returned an IC50 of 170000 nM.

In the case of `C[C@H](C[C@@](C(N)=O)(c1ccccc1)c1ccccn1)N(C)C` (stereo in doubt; 13 (2S,4R)), half-maximal inhibition (IC50) required 130 nM.

The test is the same for the next values; noted with them: Cavia porcellus.
Take `CN(C)CCC(C(N)=O)(c1ccccc1)c1ccccn1` (configuration not stated): the IC50 was 8100 nM.
